# Measurements published in PubChem BioAssay AID1033 (Sanford-Burnham Center for Chemical Genomics, 2008).
# The source made the active and inactive calls. The rule behind the calls is not given here.
# Molecular target: Chaperone protein DnaK (Escherichia coli (strain K12)) (UniProt P0A6Y8)
# Assay: binders of DnaK substrate-binding domain, biophysical, NMR, chaperone (AID 1033)
# Conditions: Purified DnaK SBD, NMR ligand binding
# Sequence of Chaperone protein DnaK (Escherichia coli (strain K12)) (P0A6Y8 whole entry, looked up, the tested form may be a part): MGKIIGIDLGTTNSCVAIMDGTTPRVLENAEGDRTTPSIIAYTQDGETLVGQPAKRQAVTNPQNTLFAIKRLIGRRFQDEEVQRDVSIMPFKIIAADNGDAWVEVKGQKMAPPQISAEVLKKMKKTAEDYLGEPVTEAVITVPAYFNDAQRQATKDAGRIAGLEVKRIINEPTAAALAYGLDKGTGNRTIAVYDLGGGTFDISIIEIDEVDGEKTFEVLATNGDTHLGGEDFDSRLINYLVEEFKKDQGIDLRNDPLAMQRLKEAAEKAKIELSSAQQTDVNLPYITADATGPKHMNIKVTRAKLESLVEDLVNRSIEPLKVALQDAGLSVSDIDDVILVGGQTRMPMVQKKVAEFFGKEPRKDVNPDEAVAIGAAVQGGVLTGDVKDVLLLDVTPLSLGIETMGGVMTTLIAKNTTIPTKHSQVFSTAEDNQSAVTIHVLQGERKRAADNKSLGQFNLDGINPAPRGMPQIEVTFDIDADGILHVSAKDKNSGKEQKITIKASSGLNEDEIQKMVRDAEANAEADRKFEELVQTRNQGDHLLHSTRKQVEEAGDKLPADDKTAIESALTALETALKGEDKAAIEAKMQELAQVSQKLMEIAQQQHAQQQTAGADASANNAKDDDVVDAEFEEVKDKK
row,Structure (SMILES),Kd
1,CC(=O)O[C@H]1CCC2(C)C3=C(CCC2C1(C)C)[C@@]1(C)CC[C@@H](C(C)CCC=C(C)C)[C@]1(C)CC3 (stereo partly drawn),> 4 mM (inactive)
2,COc1c2ccoc2cc2oc(=O)ccc12,> 4 mM (inactive)
3,O=C1C=CC2=C3c4cc(O)c(O)cc4C[C@@]3(O)COC2=C1,> 4 mM (inactive)
4,COc1cc(OC)c(OC)cc1C=O,> 4 mM (inactive)
5,O=C(O)C1=CCCNC1,> 4 mM (inactive)
6,COc1cc([C@@H]2c3cc4c(cc3[C@H](OC(C)=O)[C@H]3COC(=O)[C@H]23)OCO4)cc(OC)c1OC,> 4 mM (inactive)
7,Cc1cc(=O)oc2cc3c(cc12)OCCO3,> 4 mM (inactive)
8,CC(=O)Nc1ccc2c(c1)n(C)c(=O)n2C,> 4 mM (inactive)
9,O=C(CSc1ncccn1)Nc1nccs1,> 4 mM (inactive)
10,Cn1ncc(CO)c1-c1ccccc1,> 4 mM (inactive)
11,COc1cc2c(cc1OC)C(C)NCC2 (stereo not drawn),> 4 mM (inactive)
12,Cn1c(=O)c2c(n(C)c1=O)=NC1(CCCCC1)N=2,> 4 mM (inactive)
13,COc1nc(C)ccc1-c1noc(-c2ccncc2)n1,> 4 mM (inactive)
14,O=C(NC(=O)N1CCOCC1)c1ccccc1,> 4 mM (inactive)
15,N#Cc1cnn2c(C(F)(F)F)cc(C(F)(F)F)nc12,> 4 mM (inactive)
16,CC(C)c1ccccc1NC(=O)c1cnccn1,> 4 mM (inactive)
17,Cc1cc(C)n2nc(C(=O)Nc3cccnc3)nc2n1,> 4 mM (inactive)
18,Cn1c(=O)c2c([nH]c(=O)n2C)n(C)c1=O,> 4 mM (inactive)
19,COc1ccc2c(c1OC)C(=O)O[C@@H]2[C@@H]1c2cc3c(cc2CCN1C)OCO3,> 4 mM (inactive)
20,Cc1ccc2cc(N)ccc2n1,> 4 mM (inactive)

row,Structure (SMILES),Kd
1,Cc1cc(N2C(=O)CCC2=O)n(-c2ccccc2)n1,> 4 mM (inactive)
2,O=C(NC(=S)NN1CCOCC1)c1cccs1,> 4 mM (inactive)
3,O=C(NC1CSCC1O)c1ccccc1 (stereo not drawn),> 4 mM (inactive)
4,Cc1cc(=O)oc2cc(O)c(O)cc12,> 4 mM (inactive)
5,c1ccc(-c2csc3ncn4nnnc4c23)cc1,> 4 mM (inactive)
6,CNC[C@@H](O)c1ccc(O)c(O)c1,> 4 mM (inactive)
7,CN(C)c1nc(N2CCOCC2)c2cnn(C)c2n1,> 4 mM (inactive)
8,COC(=O)CCC(C)C1CCC2C3CCC4C[C@H](O)CC[C@]4(C)C3C[C@H](O)[C@]12C (stereo partly drawn),> 4 mM (inactive)
9,CC(C)=CC1C(C(=O)O)C1(C)C (stereo not drawn),> 4 mM (inactive)
10,CNC(=O)c1cc2cccc(OC)c2oc1=O,> 4 mM (inactive)
11,CC(NC(=O)c1ccco1)c1ccc2c(c1)OCCO2 (stereo not drawn),> 4 mM (inactive)
12,O=C(O)c1cc2ccccc2cn1,> 4 mM (inactive)
13,Nc1cc(N)nc(SCc2ccccc2)n1,> 4 mM (inactive)
14,O=S1(=O)CCC(NC(=S)Nc2ccc(O)cc2)C1 (stereo not drawn),> 4 mM (inactive)
15,Nc1ccc2ncsc2c1,> 4 mM (inactive)
16,CNS(=O)(=O)c1cc(OC)ccc1OC,> 4 mM (inactive)
17,Cc1nn(C)c2sc(CO)cc12,> 4 mM (inactive)
18,C=CCCCCCCCCCCCC(O)CC(O)CO (stereo not drawn) (tested in a mixture with another compound),> 4 mM (inactive)
19,O=C(c1cccnc1Cl)N1CCOCC1,> 4 mM (inactive)
20,O=C1CCCCCN1CO,> 4 mM (inactive)

row,Structure (SMILES),Kd
1,COc1ccc(-c2nc3nc(C)cc(C)n3n2)cc1,> 4 mM (inactive)
2,O=C(Nc1nnc(-c2ccncc2)o1)c1cccs1,> 4 mM (inactive)
3,CCc1ccc(/C=N/n2cnnc2)cc1,> 4 mM (inactive)
4,Cc1nc2sccn2c1C(=O)O,> 4 mM (inactive)
5,Cn1nnc2c(Cl)ncnc21,> 4 mM (inactive)
6,Cc1cc(O)cc(=O)n1CCCC(=O)O,> 4 mM (inactive)
7,Cc1ccc(S(C)(=O)=O)s1,> 4 mM (inactive)
8,O=C(O)CCCCCCCCCCCCC1C=CCC1 (stereo not drawn),> 4 mM (inactive)
9,NC12CC3CC(C1)CC(C(=O)O)(C3)C2,> 4 mM (inactive)
10,CCOC(=O)c1cnc2cc(C)nn2c1C,> 4 mM (inactive)
11,O=c1nc(N2CCOCC2)nc2n1CCO2,> 4 mM (inactive)
12,COC(=O)c1c[nH]c2ccccc12,> 4 mM (inactive)
13,Nc1ncnc2c1ncn2[C@@H]1O[C@H](CO)[C@@H](O)[C@H]1O,> 4 mM (inactive)
14,COc1cc2c(cc1OC)-c1cc3ccc(OC)c(OC)c3c[n+]1CC2,> 4 mM (inactive)
15,CCCCCc1c2c(cc(O)c1C(=O)O)OC(=O)c1c(cc(OC)cc1C(=O)CCCC)O2,> 4 mM (inactive)
16,CC(=O)c1c(C)nc(-c2ccc(F)cc2)n1O,> 4 mM (inactive)
17,Cn1c(SCC(N)=O)nc2ccccc2c1=O,> 4 mM (inactive)
18,O=C(Cc1c(F)cccc1Cl)Nc1ccncc1,> 4 mM (inactive)
